Source: publication PMC5007854, “β-Nitrostyrenes as Potential Anti-leishmanial Agents” (Frontiers in Microbiology, 2016)
Values after ≈ are worked out from the molar mass of the structure shown. Where two headings read alike, the source gives them in different places.

Experiments:
[1] = tested on: Candida albicans ATCC 90028; experiment: Broth microdilution antifungal susceptibility (MIC/MFC); type: cell-based; conditions: Candida albicans
Source text: (§1) One reference each of the following species was used for their in vitro susceptibility to β-nitrostyrene in this study: Staphylococcus aureus ATCC 29213, Staphylococcus epidermidis ATCC 14990, Escherichia coli ATCC 25922, Pseudomonas aeruginosa ATCC 27853, Candida albicans ATCC 90028, Candida glabrata ATCC 90030, Aspergillus fumigatus ATCC 16424 and Aspergillus niger ATCC 16404. These strains were procured from the American Type Culture Collection (ATCC, Manassas, VA, USA).
(§2) The antibacterial and antifungal activities of the β-nitrostyrenes were performed by broth microdilution methods as per the guidelines of Clinical and Laboratory Standard Institute (Wayne, [1998], [2008a],[b],[c]) by using Mueller-Hinton broth (MHB; Becton-Dickinson, Cockeysville, MD, USA) supplemented with calcium (25 mg/L) and magnesium (12.5 mg/L) for bacterial strains while as RPMI 1640 medium with L-glutamine and without sodium bicarbonate, buffered to pH 7.0 with 0.165 M 3-(N-morpholino) propanesulfonic acid (MOPS; both from Sigma) was used for fungal strains. Stock solutions were prepared in 100% dimethyl sulfoxide (DMSO; Sigma; distilled water was used for ciprofloxacin), with a final DMSO concentration of 1% (vol. per vol.) and two-fold serial dilutions were prepared in media in amounts of 100 μL per well in 96-well U-bottom microtiter plates (Tarsons, Kolkata, India) to yield twice the final concentration required for testing, which ranged from 64 to 0.12 μg/mL for β-nitrostyrenes and 16 to 0.03 μg/mL for ciprofloxacin as well as amphotericin B. Stock inoculum suspensions of the bacteria, Candida species and Aspergillus species were prepared in sterile normal saline (0.85%) containing 0.05% polysorbate 20 (NST) from overnight (3 to 5-day old for Aspergillus species) strains grown on Trypticase soy agar (TSA; Becton-Dickinson) and potato dextrose agar (Difco Laboratories, Detroit, MI, USA) respectively at 35°C. Inocula were verified for each assay by plating onto agar plates for colony enumeration. These suspensions were further diluted in the respective test medium and a 100 μl volume of this diluted inoculum was added to each well of the plate, resulting in a final inoculum concentration of approximately 5 × 10^5 CFU/mL for bacter1ia, (Wayne, [2008a]) approximately 2.5 × 10^4 CFU/ml for Candida species (Pfaller et al., [2004]) while as 0.4 × 10^4 to 5 × 10^4 CFU/mL for Aspergillus species (Wayne, [2008c]). Untreated growth control, vehicle control (DMSO) and sterility control wells were included for each isolate tested. Ciprofloxacin and amphotericin B served as the standard drug controls for bacterial and fungal strains, respectively. The microtiter plates were incubated at 35°C for 24 h for bacterial strains and 48 h for fungal strains. The plates were read visually and the minimum inhibitory concentration (MIC) was defined as the lowest concentration of test sample that prevented visible growth with respect to the growth control.
(§3) The minimum bactericidal concentration (MBC) and minimum fungicidal concentration (MFC) were determined by plating 100 μl volumes on agar plates from the wells showing no visible growth (clear MIC well). The plates were incubated as described above in MIC measurements. […] All experiments were conducted twice in duplicates on separate occasions with freshly prepared inoculums and stock solutions.

[2] = tested on: Candida glabrata ATCC 90030; experiment: as above; type: cell-based; conditions: Nakaseomyces glabratus
Source text: as §1, §2, §3

[3] = tested on: Aspergillus fumigatus ATCC 16424; experiment: as above; type: cell-based; conditions: for MIC / MFC: Aspergillus fumigatus; for MIC: ATCC16424, 48 h
Source text: as §1, §2, §3

[4] = tested on: Aspergillus niger ATCC 16404; experiment: as above; type: cell-based; conditions: for MIC / MFC: Aspergillus niger; for MIC: ATCC16404, 48 h
Source text: as §1, §2, §3

[5] = tested on: L. donovani promastigotes; experiment: Anti-leishmanial screening at 100 μM, parasite viability by microscopy; type: cell-based, Leishmania donovani; conditions: 100 μM, 72 h, phase contrast microscope
Protocol: (§4) L. donovani parasites (MHOM/IN/83/AG83) were maintained in vivo in BALB/c mice. Promastigotes were routinely cultured at 22°C in medium M199 supplemented with 10% heat inactivated fetal bovine serum (FBS, HiMedia Laboratories, Mumbai, India), penicillin 100 (IU/ml), streptomycin (100 μg/ml). Log phase promastigotes were sub-cultured every 72–96 h, the inoculum being 2 × 10^6 cells/ml (Afrin et al., [2002]).
Nitrostyrine series were screened for their antileishmanial activity against L. donovani promastigotes in vitro. Promastigotes of L. donovani (2 × 10^6 cells/mL) in M199 medium were incubated at 22°C for 72 h with each compound at a concentration of 100 μM. Amphotericin B (AmB) served as reference drug, 0.2% DMSO was used as solvent control. Parasites with media alone were taken as control. Parasite viability was determined microscopically after 72 h (Islamuddin et al., [2014b]).

[6] = tested on: Escherichia coli ATCC 25922; experiment: Broth microdilution antibacterial susceptibility (MIC/MBC); type: cell-based; conditions: for MIC / MBC: Escherichia coli; for MIC: ATCC25922, 24 h
Source text: as §1, §2, §3

[7] = tested on: Staphylococcus epidermidis ATCC 14990; experiment: as above; type: cell-based; conditions: for MIC / MBC: Staphylococcus epidermidis; for MIC: ATCC14990, 24 h
Source text: as §1, §2, §3

[8] = tested on: Staphylococcus aureus ATCC 29213; experiment: as above; type: cell-based; conditions: for MIC / MBC: Staphylococcus aureus; for MIC: ATCC29213, 24 h
Source text: as §1, §2, §3

[9] = tested on: Pseudomonas aeruginosa ATCC 27853; experiment: as above; type: cell-based; conditions: for MIC / MBC: Pseudomonas aeruginosa; for MIC: ATCC27853, 24 h
Source text: as §1, §2, §3

[10] = tested on: L. donovani promastigotes; experiment: Dose-dependent anti-promastigote activity, IC50 and IC90; type: cell-based, Leishmania donovani; conditions: Leishmania donovani; 72 h, 22°C; values given in μM; read-out: IC50 against promastigotes
Protocol: as §4
AmB was used as a standard antileishmanial drug control. The cell viability was evaluated by microscopically and the mean percentage viability was calculated as follows: Mean cell number of treated parasites / Mean cell number of untreated parasites × 100. The 50 and 90% inhibitory concentration (IC50 and IC90) i.e., the concentration of drugs that decreased the cell growth by 50 and 90% respectively was determined by graphical extrapolation after plotting the graph of % viability vs. concentration of drug (Islamuddin et al., [2014b]).
In vitro antileishmanial activity was expressed as IC50 by linear regression analysis. Values are mean ± SE of samples in triplicate from at least three independent experiments. Statistical analysis was performed using ANOVA followed by Dunnett's test. ^*P < 0.05, ^**P < 0.01 and ^***P < 0.001 compared with the untreated control group were considered significant.

[11] = broth microdilution, 35°C, 48 h
[12] = broth microdilution, 35°C, 24 h

Structure (SMILES): C/C(=C\c1ccc([N+](=O)[O-])cc1)[N+](=O)[O-] [Compound 8, 1-nitro-4-((E)-2-nitroprop-1-enyl) benzene]
- MIC ([1]; ATCC90028, 48 h, read-out: MIC, Ca ATCC 90028, broth microdilution, 35°C, 48 h): 4 µg/mL (≈ 19.2 µM)
- MFC ([1]; ATCC90028, read-out: MFC, Ca ATCC 90028): 4 µg/mL (≈ 19.2 µM)
- MIC ([2]; ATCC90030, 48 h, read-out: MIC, Cg ATCC 90030, broth microdilution, 35°C, 48 h): 1 µg/mL (≈ 4.8 µM)
- MFC ([2]; ATCC90030, read-out: MFC, Cg ATCC 90030): 1 µg/mL (≈ 4.8 µM)
- MIC ([3]; read-out: MIC, Af ATCC 16424, broth microdilution, 35°C, 48 h): 4 µg/mL (≈ 19.2 µM)
- MFC ([3]; ATCC16424, read-out: MFC, Af ATCC 16424): 4 µg/mL (≈ 19.2 µM)
- MIC ([4]; read-out: MIC, An ATCC 16404, broth microdilution, 35°C, 48 h): 2 µg/mL (≈ 9.61 µM)
- MFC ([4]; ATCC16404, read-out: MFC, An ATCC 16404): 2 µg/mL (≈ 9.61 µM)
- Parasite viability after treatment [5]: All the parasites were found to be dead
- MIC ([6]; read-out: MIC, Ec ATCC 25922, broth microdilution, 35°C, 24 h): 64 µg/mL (≈ 307 µM)
- MBC ([6]; ATCC25922, read-out: MBC, Ec ATCC 25922): > 64 µg/mL
- MIC ([7]; read-out: MIC, Se ATCC 14990, broth microdilution, 35°C, 24 h): 16 µg/mL (≈ 76.9 µM)
- MBC ([7]; ATCC14990, read-out: MBC, Se ATCC 14990): 16 µg/mL (≈ 76.9 µM)
- MIC ([8]; read-out: MIC, Sa ATCC 29213, broth microdilution, 35°C, 24 h): 16 µg/mL (≈ 76.9 µM)
- MBC ([8]; ATCC29213, read-out: MBC, Sa ATCC 29213): 32 µg/mL (≈ 154 µM)
- MIC ([9]; read-out: MIC, Pa ATCC 27853, broth microdilution, 35°C, 24 h): 64 µg/mL (≈ 307 µM)
- MBC ([9]; ATCC27853, read-out: MBC, Pa ATCC 27853): > 64 µg/mL
- melting point: 114 to 116 °C

Structure (SMILES): CC/C(=C\c1cccc(O)c1)[N+](=O)[O-] [Compound 21, 3-((E)-2-nitrobut-1-enyl) phenol]
- MFC ([1]; ATCC90028, ≥99.9% reduction of original inoculum, read-out: MFC, Ca ATCC 90028): 32 µg/mL (≈ 166 µM)
- MFC ([2]; ATCC90030, ≥99.9% reduction of original inoculum, read-out: MFC, Cg ATCC 90030): 16 µg/mL (≈ 82.8 µM)
- MIC ([3]; broth microdilution, 35°C, 48 h, read-out: MIC, Af ATCC 16424): 4 to 8 µg/mL (≈ 20.7 to 41.4 µM)
- MFC ([3]; ATCC16424, ≥99.9% reduction of original inoculum, read-out: MFC, Af ATCC 16424): 8 µg/mL (≈ 41.4 µM)
- MIC, Af ATCC 16424 [3, 11]: 8 µg/mL (≈ 41.4 µM)
- MIC ([4]; broth microdilution, 35°C, 48 h, read-out: MIC, An ATCC 16404): 2 to 4 µg/mL (≈ 10.4 to 20.7 µM)
- MFC ([4]; ATCC16404, ≥99.9% reduction of original inoculum, read-out: MFC, An ATCC 16404): 8 µg/mL (≈ 41.4 µM)
- MIC, An ATCC 16404 [4, 11]: 4 µg/mL (≈ 20.7 µM)
- Parasite viability after treatment [5]: All the parasites were found to be dead
- IC50 [10]: 28.4 ± 3.11 µM
- MIC ([6]; broth microdilution, 35°C, 24 h, read-out: MIC, Ec ATCC 25922): 16 to 32 µg/mL (≈ 82.8 to 166 µM)
- MBC ([6]; ATCC25922, ≥99.9% reduction of original inoculum, read-out: MBC, Ec ATCC 25922): 64 µg/mL (≈ 331 µM)
- MIC, Ec ATCC 25922 [6, 12]: 32 µg/mL (≈ 166 µM)
- MIC ([7]; broth microdilution, 35°C, 24 h, read-out: MIC, Se ATCC 14990): 2 to 16 µg/mL (≈ 10.4 to 82.8 µM)
- MBC ([7]; ATCC14990, ≥99.9% reduction of original inoculum, read-out: MBC, Se ATCC 14990): 2 µg/mL (≈ 10.4 µM)
- MIC, Se ATCC 14990 [7, 12]: 2 µg/mL (≈ 10.4 µM)
- MIC ([8]; broth microdilution, 35°C, 24 h, read-out: MIC, Sa ATCC 29213): 2 to 32 µg/mL (≈ 10.4 to 166 µM)
- MBC ([8]; ATCC29213, ≥99.9% reduction of original inoculum, read-out: MBC, Sa ATCC 29213): 4 µg/mL (≈ 20.7 µM)
- MIC, Sa ATCC 29213 [8, 12]: 2 µg/mL (≈ 10.4 µM)
- MIC ([9]; broth microdilution, 35°C, 24 h, read-out: MIC, Pa ATCC 27853): 16 to 32 µg/mL (≈ 82.8 to 166 µM)
- MBC ([9]; ATCC27853, ≥99.9% reduction of original inoculum, read-out: MBC, Pa ATCC 27853): 64 µg/mL (≈ 331 µM)
- MIC, Pa ATCC 27853 [9, 12]: 32 µg/mL (≈ 166 µM)
- melting point: 82 to 84 °C
